In patent US20100041892A1, “Therapeutic agent for diabetes” (priority 2005, published 2010):

| melting point | SMILES |
| --- | --- |
| 107 to 109 °C | COCCCS(=O)(=O)NC(=O)CC(C)c1ccc(OCCOC)cc1Oc1ncc(C(F)(F)F)cc1Cl (centres unmarked) [Example 78, 3-[2-{[3-chloro-5-(trifluoromethyl)pyridin-2-yl]oxy}-4-(2-methoxyethoxy)phenyl]-N-[(3-methoxypropyl)sulfonyl]butanamide] |
| 107 to 108 °C | CCCCCS(=O)(=O)NC(=O)CCc1cc(OC(C)C)nn1Cc1ccc(F)cc1F [Example 80, 3-[1-(2,4-difluorobenzyl)-3-isopropoxy-1H-pyrazol-5-yl]-N-(pentylsulfonyl)propanamide] |
| 167 to 169 °C | CC(C)Oc1cc(CCC(=O)NS(=O)(=O)c2ccc(C(F)(F)F)cc2)n(Cc2ccc(Cl)cc2Cl)n1 [Example 83, 3-[1-(2,4-dichlorobenzyl)-3-isopropoxy-1H-pyrazol-5-yl]-N-{[4-(trifluoromethyl)phenyl]sulfonyl}propanamide] |
| 165 to 166 °C | Cc1ccccc1S(=O)(=O)NC(=O)CCc1cc(OC(C)C)nn1Cc1ccc(Cl)cc1Cl [Example 88, 3-[1-(2,4-dichlorobenzyl)-3-isopropoxy-1H-pyrazol-5-yl]-N-[(2-methylphenyl)sulfonyl]propanamide] |
| 135 to 136 °C | CC(C)Oc1cc(CCC(=O)NS(=O)(=O)C(C)C)n(Cc2ccc(Cl)cc2Cl)n1 [Example 89, 3-[1-(2,4-dichlorobenzyl)-3-isopropoxy-1H-pyrazol-5-yl]-N-(isopropylsulfonyl)propanamide] |

Second part, the compound before the results:

| SMILES | melting point |
| --- | --- |
| CC(C)Oc1cc(CCC(=O)NS(=O)(=O)c2ccccc2)n(Cc2ccc(Cl)cc2Cl)n1 [Example 82, 3-[1-(2,4-dichlorobenzyl)-3-isopropoxy-1H-pyrazol-5-yl]-N-(phenylsulfonyl)propanamide] | 184 to 185 °C |
| CCCS(=O)(=O)NC(=O)CCc1cc(OC(C)C)nn1Cc1ccc(Cl)cc1Cl [Example 85, 3-[1-(2,4-dichlorobenzyl)-3-isopropoxy-1H-pyrazol-5-yl]-N-(propylsulfonyl)propanamide] | 124 to 126 °C |
| CCCCCCS(=O)(=O)NC(=O)CCc1cc(OC(C)C)nn1Cc1ccc(Cl)cc1Cl [Example 87, 3-[1-(2,4-dichlorobenzyl)-3-isopropoxy-1H-pyrazol-5-yl]-N-(hexylsulfonyl)propanamide] | 103 to 106 °C |
| CC(C)Oc1cc(CCC(=O)NS(=O)(=O)C2CCCCC2)n(Cc2ccc(Cl)cc2Cl)n1 [Example 90, N-(cyclohexylsulfonyl)-3-[1-(2,4-dichlorobenzyl)-3-isopropoxy-1H-pyrazol-5-yl]propanamide] | 137 to 138 °C |
| CC(C)Oc1cc(CCC(=O)NS(=O)(=O)CCCc2ccccc2)n(Cc2ccc(Cl)cc2Cl)n1 [Example 91, 3-[1-(2,4-dichlorobenzyl)-3-isopropoxy-1H-pyrazol-5-yl]-N-[(3-phenylpropyl)sulfonyl]propanamide] | 132 to 134 °C |
| CC(C)CCS(=O)(=O)NC(=O)CCc1cc(OC(C)C)nn1Cc1ccc(Cl)cc1Cl [Example 92, 3-[1-(2,4-dichlorobenzyl)-3-isopropoxy-1H-pyrazol-5-yl]-N-[(3-methylbutyl)sulfonyl]propanamide] | 143 to 145 °C |
| CCCCCS(=O)(=O)NC(=O)/C=C/c1cc(OCCCC)nn1Cc1ccc(Cl)cc1Cl [Example 98, (2E)-3-[3-butoxy-1-(2,4-dichlorobenzyl)-1H-pyrazol-5-yl]-N-(pentylsulfonyl)acrylamide] | 95 to 98 °C |
| CCCCOc1cc(/C=C/C(=O)NS(=O)(=O)CCC(C)C)n(Cc2ccc(Cl)cc2Cl)n1 [Example 99, (2E)-3-[3-butoxy-1-(2,4-dichlorobenzyl)-1H-pyrazol-5-yl]-N-[(3-methylbutyl)sulfonyl]acrylamide] | 119 to 120 °C |
| CCCCCS(=O)(=O)NC(=O)/C=C/c1cc(OCCCC)nn1Cc1ccc(C(F)(F)F)cc1 [Example 103, (2E)-3-{3-butoxy-1-[4-(trifluoromethyl)benzyl]-1H-pyrazol-5-yl}-N-(pentylsulfonyl)acrylamide] | 159 to 160 °C |
